In PMC8467136, “Enabling Efficient Folding and High-Resolution Crystallographic Analysis of Bracelet Cyclotides” (Molecules, 2021):
“And” between values parts separate entries of the source, which are not always exact repeats. Identical values can stand only once. Bridge positions count the residues as written; N and C are the ends. Peptide text beside a SMILES is read from it.

Legend:
[1] = tested on: POPC/POPE (80:20) model membrane; assay: Membrane binding to POPC/POPE lipid bilayers by surface plasmon resonance (SPR); conditions: BIAcore T200, L1 chip, POPC/POPE (80:20) bilayer, 10 mM HEPES, 150 mM NaCl; for P/L Max, peptide-to-lipid maximum binding value: pH 7.4, injection 180 s, dissociation 600 s, nonlinear regression; for Kd: pH 7.4, nonlinear regression, read-out: KD, peptide concentration required to achieve half-maximum binding at equilibrium
Text: Cyclotides are reported to exert their biological activities via membrane binding, particularly by selective binding to lipids containing phosphatidylethanolamine (PE) headgroups. Therefore, to evaluate the functional impact of the single mutation on bracelet cyclotides, the membrane-binding ability of these variants towards PE-containing lipid bilayers was examined using surface plasmon resonance (SPR). The model membrane comprising 80% 1-palmitoyloleoyl-phosphatidylcholine (POPC) and 20% 1-palmitoyloleoyl-phosphatidylethanolamine (POPE) was used. Binding affinity was evaluated by the peptide-to-lipid maximum binding value (P/L max, mol/mol) and the peptide concentration required to achieve half-maximum binding at equilibrium (KD value, μM). […] The negative effect of the [I11G] bracelet cyclotide mutation on lipid binding was expected, as the mutation reduces surface hydrophobicity, a previously reported determinant of membrane binding. The SPR dose-response curves and sensorgrams are shown in Figure S4 in Supplementary Material.
The binding affinity of bracelet cyclotides and their variants toward lipid bilayers was studied using SPR, as described previously. Two synthetic lipids, 1-palmitoyl-2-oleoyl-glycero-3-phosphocholine (POPC) and 1-palmitoyl-2-oleoyl-sn-glycero-3-phosphoethanolamine (POPE), were purchased from Avanti Polar Lipids (USA). Briefly, homogenous, small, unilamellar vesicles composed of POPC/POPE (80:20, mol/mol) were obtained by extruding the vesicle suspension through a 50-nm pore size polycarbonate membrane. L1 sensor chips and BIAcore T200 instrument were used (Cytiva, Marlborough, MA, USA). After the lipid was loaded and formed a bilayer membrane on the L1 chip, peptide solutions were injected over the lipid surface for 180 s and the dissociation was monitored for 600 s. Peptides were tested at concentrations ranging from 4–32 μM. Peptide-to-lipid molar ratio and KD values were calculated by nonlinear regression using GraphPad Prism software (version 8.3.1). Peptide solutions and lipid vesicles were prepared in HEPES buffer (10 mM HEPES, 150 mM NaCl, pH 7.4, filtered) for SPR studies.

HeLa cells = assay: Cytotoxicity against HeLa cells, resazurin assay; assay type: cell-based; conditions: 5000 cells/well, 24-h incubation with peptide, then resazurin 18 h, triplicate, mean ± SEM
Experimental: To further confirm the activity of these mutants, their cytotoxicity against HeLa cancer cells was evaluated along with wild-type bracelet cyclotides. […] Of the four [I11G] mutants, the hyen D analogue had the highest activity, possibly because hyen D has one more hydrophobic residue in loop 3 compared to the other three cyclotides, which may contribute to its higher lipid-binding capacity (P/L max = 0.37) and help offset the hydrophobicity loss caused by the [I11G] mutation.
The cytotoxicity of the peptides was evaluated using the resazurin assay, as described previously. HeLa cells were seeded at 5000 cells/well in a 96-well, flat-bottomed plate one day prior to the experiments. Peptide solutions were prepared in water and incubated with HeLa cells at concentrations ranging from 16 to 0.125 μM or 8 to 0.063 μM in triplicate (final concentrations). Water and 1% Triton X-100 (TX) were applied as negative and positive control, respectively. After 24-h incubation, 10 μL of resazurin (0.05%, w/v) was added and incubated with cells for another 18 h. The absorbance was measured at 540 and 620 nm on a microplate reader (Infinite M1000 Pro microplate reader, Tecan, Switzerland). The percentage of cell death was quantified by calculating the absorbance ratio, R (R = absorbance at 620/540), and applying the following equation: % Cell death = (Rsample − RH2O)/(RTX − RH2O) × 100. Data were analyzed with GraphPad Prism software (version 8.3.1) using Specific binding with Hill slope algorithm.

CC[C@H](C)[C@@H]1NC(=O)[C@H](C)NC(=O)[C@H](CO)NC(=O)[C@H](CO)NC(=O)[C@H]([C@@H](C)CC)NC(=O)[C@@H]2CSSC[C@@H]3NC(=O)[C@H](C(C)C)NC(=O)[C@H](CCCCN)NC(=O)[C@H](CO)NC(=O)[C@H](CCCCN)NC(=O)[C@@H]4CSSC[C@H](NC(=O)[C@H](CO)NC(=O)[C@H](CCC(=O)O)NC(=O)CNC(=O)[C@H](CSSC[C@H](NC(=O)CNC1=O)C(=O)N[C@@H](CO)C(=O)N4)NC(=O)[C@@H]1CCCN1C(=O)[C@H]([C@@H](C)CC)NC(=O)CNC(=O)[C@H](CC(N)=O)NC(=O)[C@H](CCCNC(=N)N)NC(=O)[C@H](Cc1ccc(O)cc1)NC3=O)C(=O)N[C@@H](C(C)C)C(=O)N[C@@H](Cc1c[nH]c3ccccc13)C(=O)N[C@@H](CC(C)C)C(=O)N1CCC[C@H]1C(=O)N2 [[I11L]cyO2] (cyclo(AIGCSCKSKVCYRNGIPCGESCVWLPCISS); disulfide 4-18, 6-22, 11-27)
P/L Max, peptide-to-lipid maximum binding value [1]: 0.31 ± 0.01 mol/mol
Kd [1]: 4.71 ± 0.17 µM
CC50 on HeLa (half maximum cytotoxic concentration) (HeLa cells): 0.95 ± 0.08 µM

CC[C@H](C)[C@@H]1NC(=O)[C@@H]2CSSC[C@@H]3NC(=O)[C@H](C(C)C)NC(=O)[C@H](CCCCN)NC(=O)[C@H](CC(=O)O)NC(=O)[C@H]([C@@H](C)O)NC(=O)[C@@H]4CSSC[C@H](NC(=O)[C@H](CO)NC(=O)[C@H](CCC(=O)O)NC(=O)CNC(=O)[C@H](CSSC[C@H](NC(=O)CNC(=O)[C@H]([C@@H](C)CC)NC(=O)[C@H](C(C)C)NC(=O)CNC(=O)[C@H](CO)NC1=O)C(=O)N[C@@H](CO)C(=O)N4)NC(=O)[C@@H]1CCCN1C(=O)[C@H]([C@@H](C)O)NC(=O)CNC(=O)[C@H](CC(N)=O)NC(=O)[C@H](CC(C)C)NC(=O)[C@H](Cc1ccc(O)cc1)NC3=O)C(=O)N[C@@H](C(C)C)C(=O)N[C@@H](Cc1ccc(O)cc1)C(=O)NCC(=O)N1CCC[C@H]1C(=O)N2 [[I11G]kB5] (cyclo(CGESCVYGPCISGVIGCSCTDKVCYLNGTP); disulfide 1-17, 5-19, 10-24)
P/L Max, peptide-to-lipid maximum binding value [1]: n.b.
CC50 on HeLa (half maximum cytotoxic concentration) (HeLa cells): >64 µM

CC[C@H](C)[C@@H]1NC(=O)[C@H](C)NC(=O)[C@H](CO)NC(=O)[C@H](CO)NC(=O)[C@H]([C@@H](C)CC)NC(=O)[C@@H]2CSSC[C@@H]3NC(=O)[C@H](C(C)C)NC(=O)[C@H](CCCCN)NC(=O)[C@H](CO)NC(=O)[C@H](CCCCN)NC(=O)[C@@H]4CSSC[C@H](NC(=O)[C@H](CO)NC(=O)[C@H](CCC(=O)O)NC(=O)CNC(=O)[C@H](CSSC[C@H](NC(=O)CNC1=O)C(=O)N[C@@H](CO)C(=O)N4)NC(=O)[C@@H]1CCCN1C(=O)[C@H]([C@@H](C)CC)NC(=O)CNC(=O)[C@H](CC(N)=O)NC(=O)[C@H](CCCNC(=N)N)NC(=O)[C@H](Cc1ccc(O)cc1)NC3=O)C(=O)N[C@@H](C(C)C)C(=O)N[C@@H](Cc1c[nH]c3ccccc13)C(=O)NCC(=O)N1CCC[C@H]1C(=O)N2 [[I11G]cyO2] (cyclo(AIGCSCKSKVCYRNGIPCGESCVWGPCISS); disulfide 4-18, 6-22, 11-27)
P/L Max, peptide-to-lipid maximum binding value [1]: n.b. ^3
CC50 on HeLa (half maximum cytotoxic concentration) (HeLa cells): >64 µM

CC[C@H](C)[C@@H]1NC(=O)CNC(=O)[C@H](CC(N)=O)NC(=O)[C@H](CCCNC(=N)N)NC(=O)[C@H](Cc2ccc(O)cc2)NC(=O)[C@@H]2CSSC[C@@H]3NC(=O)[C@@H]4CCCN4C(=O)CNC(=O)[C@H](Cc4c[nH]c5ccccc45)NC(=O)[C@H](C(C)C)NC(=O)[C@@H]4CSSC[C@H](NC(=O)[C@H](CO)NC(=O)[C@H](CSSC[C@H](NC(=O)[C@@H]5CCCN5C1=O)C(=O)NCC(=O)N[C@@H](CCC(=O)O)C(=O)N[C@@H](CO)C(=O)N4)NC(=O)CNC(=O)[C@H](C(C)C)NC(=O)[C@H](C)NC(=O)[C@H](CO)NC(=O)[C@H]([C@@H](C)O)NC(=O)[C@H](CC(C)C)NC3=O)C(=O)N[C@@H](CCCCN)C(=O)N[C@@H](CO)C(=O)N[C@@H](CCCCN)C(=O)N[C@@H](C(C)C)C(=O)N2 [[I11G]cyO9] (cyclo(AVGCSCKSKVCYRNGIPCGESCVWGPCLTS); disulfide 4-18, 6-22, 11-27)
P/L Max, peptide-to-lipid maximum binding value [1]: n.b.
CC50 on HeLa (half maximum cytotoxic concentration) (HeLa cells): >64 µM

CC[C@H](C)[C@@H]1NC(=O)[C@H](C)NC(=O)[C@H](C)NC(=O)[C@H]([C@@H](C)O)NC(=O)[C@H](Cc2ccccc2)NC(=O)[C@@H]2CSSC[C@@H]3NC(=O)[C@H](C(C)C)NC(=O)[C@H](CCCCN)NC(=O)[C@H](CO)NC(=O)[C@H](CCCCN)NC(=O)[C@@H]4CSSC[C@H](NC(=O)[C@H](CO)NC(=O)[C@H](CCC(=O)O)NC(=O)CNC(=O)[C@H](CSSC[C@H](NC(=O)CNC1=O)C(=O)N[C@@H](CO)C(=O)N4)NC(=O)[C@@H]1CCCN1C(=O)[C@H](Cc1ccccc1)NC(=O)CNC(=O)[C@H](CC(N)=O)NC(=O)[C@H](CCCCN)NC(=O)[C@H](Cc1ccc(O)cc1)NC3=O)C(=O)N[C@@H](C(C)C)C(=O)N[C@@H](Cc1ccc(O)cc1)C(=O)N[C@@H]([C@@H](C)CC)C(=O)N1CCC[C@H]1C(=O)N2 [hyen D, reference compound] (cyclo(AAIGCSCKSKVCYKNGFPCGESCVYIPCFT); disulfide 5-19, 7-23, 12-28)
P/L Max, peptide-to-lipid maximum binding value [1]: 0.37 mol/mol and 0.37 ± 0.01 mol/mol
Kd [1]: 4.48 ± 0.17 µM
CC50 on HeLa (half maximum cytotoxic concentration) (HeLa cells): 0.85 ± 0.03 µM
